The source of these data is patent US6544787B1, “Non-myeloablative/lymphoablative conditioning regimen to induce patient anti-donor unresponsiveness in stem cell transplantation” (Hadash Medical Research Services and Development Ltd., priority 1996, dated 2003).

Assay [1] has as its system patient with ovarian cancer stage IIIc. Description: CA-125 during prior chemotherapy, case history. It counts as in vivo, human. More on the design: unit not given here.
The subject of assay [2] is human patients with malignant and non-malignant pathogenic cell diseases. In kind it is in vivo. The following applies: the other 8 patients who developed GVHD; starting with 2 mg/kg.
The subject of assay [3] is cultured erythroid colonies. Kind of assay: β-globin gene mutation assay on cultured erythroid colonies +/- Epo. In kind it is cell-based, human. To be noted: in the presence of Epo; 7% without Epo. As to the method:
To clarify the unusual clinical picture of this patient, a β-globin gene mutation assay was performed on cultured erythroid colonies, +/− erythropoietin (Epo). […] Donor cells without Epo amounted to 7%, similar to their percentage in peripheral blood lymphocytes and nucleated BMC, rising to 16% in the presence of Epo.

“And” between values parts separate entries of the source, which are not always exact repeats. Identical values can stand only once.

On to `N.N.[Cl][Pt][Cl]` [cisplatinum], for which the CA-125 in assay [1] (several courses 20 mg/d x3d q3w) was 328 and 439.6.
Take `C[C@]12C=CC(=O)C=C1CC[C@@H]1[C@@H]2C(=O)C[C@@]2(C)[C@H]1CC[C@]2(O)C(=O)CO` [prednisone]: the “response of GVHD to treatment” value in assay [2] is “responded”.
For the molecule `CC(=O)O[C@H]1C(=O)[C@@]2(C)[C@H]([C@H](OC(=O)c3ccccc3)[C@]3(O)C[C@H](OC(=O)[C@H](O)[C@@H](NC(=O)c4ccccc4)c4ccccc4)C(C)=C1C3(C)C)[C@]1(OC(C)=O)CO[C@@H]1C[C@@H]2O` [Taxol], the CA-125 was 27 in assay [1] (175 mg/m^2, after 3 cycles, from 600); about 22 in assay [1] (after 10 cycles); 152 in assay [1] (total of 28 courses).
Take erythropoietin [Epo]: the Donor cells in assay [3] was determined as 16%.
